According to patent publication US12533353B2, “Methods of treatment of cancer comprising CDC7 inhibitors” (CARNA BIOSCIENCES, INC., priority 2018, dated 2026):

Key:
[1] = system: Colo-205 and SW620 cell populations; test: High content imaging of cells in mitosis, 48 hours; format: cell-based
[2] = system: tumoral phospho-MCM2 (pMCM2); test: Mouse SW620 colorectal xenograft PK/PD assessment; format: in vivo
Method: The effect of SRA141 treatment on tumoral phospho-MCM2 (pMCM2), a direct substrate of Cdc7 and downstream marker of Cdc7 inhibition, was determined in mice bearing SW620 xenografts. Changes in pMCM2 were correlated with SRA141 concentrations in tumor and plasma over a 48-hour period following drug administration to construct a rudimentary PK/PD model.
Specifically, female BALB/c mice bearing subcutaneous SW620 tumors were administered single oral doses of SRA141 at 30, 60 or 120 mg/kg (n=15 per group). Control animals were administered vehicle (0.1 M HCl/0.5% MC400; n=10). At 2, 4, 8, 24 and 48 hours following treatment, three animals from each group (n=2 for control) were terminated, and plasma and tumor sampled for analysis.

[3] = system: pMCM2-S40, pMCM2-S53, pMCM2-S41, pHH3; test: Immunohistochemistry in rat MV-4-11 xenograft tumor and skin; format: in vivo
Method: Rats bearing subcutaneous biphenotypic B myelomonocytic leukemia MV-4-11 tumors were treated with SRA141 at 75 mg/kg or vehicle, BID, or with SRA141 at 100 mg/kg, QD, for 5 days. Tumors were collected from the animals 12 hours after administration of the last dose. Formalin fixed paraffin-embedded tumor and/or skin were assessed by immunohistochemistry for total MCM2, phosphorylated MCM2 at Serine 40 (pMCM2-S40) and phosphorylated MCM2 at Serine 53 (pMCM2-S53), phosphorylated MCM2 at Serine 41 (pMCM2-S41), and phosphorylated-Histone H2A.X at Serine 139 effects at steady-state.
Tumor cells in xenograft tumors (but not stroma or surrounding rat tissue) were scored. Scoring is performed semi-quantitatively with the main components to scoring tumor cells for total MCM2, pMCM2-S53, pMCM2-S40, and gH2AX reactivity as percentages at differential intensities and H-Scores. Percentage and intensity measures are estimated by a scientist in the same relative region of tumor (one 40×-field from the bottom edge) within each xenograft sample.
The H-Score approach used to evaluate the xenograft tissues requires recording the percentage of tumor cells with nuclear staining at a corresponding differential intensity on a four-point semi-quantitative scale (0, 1+, 2+, 3+). […]
The H-Score is calculated by summing the percentage of cells with intensity of expression (brown staining) multiplied by their corresponding differential intensity on a four-point semi-quantitative scale (0, 1+, 2+, 3+). […]
Epithelial cells of the epidermis in rat skin samples were scored […] by two scientists. Scoring was performed quantitatively with the main component to scoring epidermal cells for total MCM2, pMCM2-S53, pMCM2-S40, and gH2AX reactivity as counts of positive cells. […] For pMCM2-S53 and pMCM2-S40, the number of positive cells in a 10× field at the four representative regions was counted. For gH2Ax, the number of positive cells in a 20× field at the four representative regions was counted. Cells were counted if staining was readily observed at 10× or 20×, regardless of intensity. Cells were only counted within the flat epidermis and not in regions of invagination in order to consistently capture the same total area.
The number of positive skin cells counted across the regions analyzed for each skin sample were averaged for each biomarker. […]
Skin cell counts were performed by recording the number of positive cells (at any intensity) counted by two independent scientists in multiple regions of skin (two regions for total MCM2, four regions for pMCM2 and gH2AX) that are in the same approximate location for each sample. The number of positive cells recorded at each skin region for each biomarker were averaged for each sample. […]

[4] = Absolute oral bioavailability; details: in vivo, free base suspension, fasted, range given for mouse, rat and dog together, read-out: absolute oral bioavailability (% F)
[5] = system: Phosphorylation of MCM2 at Ser53 (Colo-205 cells); test: Durability of Cdc7 inhibition after washout (pMCM2 Ser53); format: cell-based, human; details: 24 hours after washout
Method: The durability of drug-induced Cdc7 inhibition was investigated in Colo-205 cells treated with two concentrations of SRA141 (0.1 μM and 1 μM) for 48 hours, followed by either immediate cell harvest, or removal of the drug incubate followed by an additional 24 hours incubation prior to cell harvest. Phosphorylation of MCM2 at Ser53, a target site of Cdc7 activity, was compared between the two conditions.

[6] = system: MDA-MB-486 breast tumor xenografts; test: MDA-MB-486 breast xenograft study; format: in vivo; details: for tumor growth inhibition: 5 weeks, Day 35
Method: Female CB-17 SCID mice bearing MDA-MB-486 breast tumor xenografts were orally administered (i) vehicle control (0.1 M HCl/0.5% MC400) or (ii) SRA141 30 or 60 mg/kg BID for 5 weeks (n=10 per treatment group). Tumor growth inhibition was calculated on Day 35, the final day of the study.

## CCOC(=O)C1=C(NN2CCN(CC(F)(F)F)CC2)O/C(=C\c2c[nH]c3ncccc23)C1=O [SRA141]
[1]
  percent of cells in mitosis: percent of cells in mitosis is greater in populations treated with SRA141 compared to other Cdc7 inhibitors
[2]; 30 mg/kg and 60 mg/kg single doses
  time of peak pMCM2 decrease: 2-4 hours
[2]; 30 mg/kg single oral dose
  Maximal SRA141 plasma concentration: ~1 µg/mL
[2]; 60 mg/kg single oral dose
  Maximal SRA141 plasma concentration: ~1.5 µg/mL
[2]; 120 mg/kg single dose
  time of peak pMCM2 decrease: 2-8 hours
[2]; 30, 60 and 120 mg/kg
  time of maximal plasma concentration after administration: 2 to 4 h
  tumoral concentrations relative to plasma: similar
[2]; correlation of PK and PD data
  circulating plasma and intra-tumoral tissue concentration required to inhibit pMCM2 by 50%: approximately 1.1 μM
[3]; 75 mg/kg BID or 100 mg/kg QD, 5 days, 12 hours after last dose
  pMCM2 at S40 and S53 in tumor: substantial decreases
[3]; after 5 days of dosing
  mitotic (pHH3) and apoptotic cells (H&E) in tumors compared to vehicle: fewer mitotic cells and an increased presence of apoptotic cells
[3]; after SRA141 treatment
  pMCM2-S41: no effects
[3]; various dosages
  pMCM2-S40 in tumor and skin versus dose: dose-dependent decrease
[4]
  bioavailability: 31 to 54%
[5]; 0.1 μM for 48 hours
  Cdc7 activity (pMCM2 Ser53) after washout: recovery of Cdc7 activity by 24 hours following compound washout
[5]; 1 μM for 48 hours
  Cdc7 activity (pMCM2 Ser53) after washout: prolonged pMCM2 inhibition was observed at 24 hours following washout
[6]; 30 mg/kg BID
  tolerability: well tolerated
  tumor growth inhibition: 26%
[6]; 60 mg/kg BID
  mice with maximum body weight loss greater than 20%: Six of 10
  tumor growth inhibition: 53%
